From patent US6340692B1, “Injectable anesthetic” (priority 1999, dated 2002)

What was measured:
male chinchilla rabbits = assay: Epidural anesthesia in rabbits; assay type: in vivo; settings: for effective duration of epidural anesthesia: chinoxicaine 2.0% solution, Lidocaine as comparison
Method: A study of epidural anesthesia was conducted on male chinchilla rabbits. The epidural puncture was made in the area of the third and fourth lumbar vertebrae by means of a Tuohi-Peridur needle. A 2.0% solution of chinoxicaine was injected into the epidural area in a volume determined in accordance with the following formula: [formula]

sciatic nerve = assay: Sciatic nerve conduction anesthesia, Camaugis-Tekman method; assay type: in vivo, rats; settings: for duration of the anesthesia: 0.2 mL
Method: A study of sciatic nerve conduction anesthesia in rats was conducted in accordance with the Camaugis-Tekman method. Prior to injection of the anesthesia, the rat motor activity was evaluated by applying a compression to the animal's feet. Then, a 0.2 mL volume of chinoxicaine solution was injected into the sciatic nerve area of the pronated lower extremity. With the application of a subsequent compression to the its feet, the animal's reaction was evaluated by observing if the animal pulled apart its toes in a ‘fan-shaped’ manner when suspended by its tail. It was determined that both 1.0% and 2.0% concentrations of chinoxicaine solutions produced fast, deep, and prolonged anesthesia. The anesthesia reached fill extent within 2.0±0.3 minutes, with either concentration.

white non-breeding rats = assay: Conduction anesthesia, injection under the tail skin; assay type: in vivo; settings: 1.0 mL under the tail skin
Method: A study of conduction anesthesia was carried out on white non-breeding rats weighing 180 to 220 grams. The anesthetic solution was injected under the tail skin on four sides in a 1.0 mL volume at concentrations ranging from 0.1% to 1.0%. Duration of the anesthetic solution was 120.3±7.1 minutes for the 0.1% concentration, 300.5±15.5 minutes for a 0.25% concentration, 306.0±16.2 minutes for a 0.5% concentration, and 320.0±13.1 minutes for the 1.0% concentration.

[1] = Conduction anesthesia, some models (general statements); assay type: in vivo
male guinea pigs = assay: Infiltration anesthesia, Beulbring-Wade method; assay type: in vivo
Method: The pharmacological activity of chinoxicaine has been evaluated using the characteristics of: i) strength of anesthesia, ii) latent period, and iii) duration of anesthesia. A study of infiltration anesthesia was conducted according to the Beulbring-Wade method on male guinea pigs. The median effective concentration (EC50) was 0.1%. Latent period was about 1.5 minutes. The duration of deep anesthesia was: i) 25 minutes for the 0.1% solution, ii) 140.5 minutes for a 0.25% solution, iii) 310.8 minutes for a 0.5% solution, and iv) 313.8 minutes for a 1.0% solution. On the basis of specific pharmacological activity data, described in greater detail below, chinoxicaine is preferably provided as either a 0.25% or 0.5% solution in 250 mL bottles for use in infiltration anesthesia, and as a 1.0% or 2.0% solution in 5 mL ampoules for conduction and epidural anesthesia. In alternative embodiments, the anesthesia solution includes a 0.9% solution of sodium chloride.

[2] = infiltration anesthesia, male guinea pigs

CCN(CC)CC(=O)Nc1c(C)cccc1C [Lidocaine, reference compound]
effective duration of epidural anesthesia (male chinchilla rabbits; epidural): about 100 minutes

CCCn1c(=O)c(C(=O)NCCN(CC)CC)c(O)c2ccccc21.Cl [chinoxicaine, hydrochloride diethylaminoethylamide 1-propyl-2 oxy-4-hydroxyquinolin-3-carbonic acid]
duration of the anesthesia (sciatic nerve; 1.0% concentration): 138.0 ± 8.9 min
duration of the anesthesia (sciatic nerve; 2.0% concentration): 205.0 ± 12.6 min
time until anesthesia reached full extent (sciatic nerve; either 1.0% or 2.0% concentration, 0.2 mL into sciatic nerve area): ≤ 2.0 ± 0.3 min
time from injection to deep and prolonged anesthesia (male chinchilla rabbits; 2.0% solution, epidural): ≤ 5.0 min
effective duration of epidural anesthesia (male chinchilla rabbits; epidural): at least 200 minutes
increase in activity as compared to Lidocaine (male chinchilla rabbits; epidural anesthesia): two-fold increase
duration of long and deep epidural and peridermal anesthesia (male chinchilla rabbits; rabbits): about 270 minutes
Duration of conduction anesthesia (white non-breeding rats; 0.1% concentration): 120.3 ± 7.1 min
Duration of conduction anesthesia (white non-breeding rats; 0.25% concentration): 300.5 ± 15.5 min
Duration of conduction anesthesia (white non-breeding rats; 0.5% concentration): 306.0 ± 16.2 min
Duration of conduction anesthesia (white non-breeding rats; 1.0% concentration): 320.0 ± 13.1 min
effective duration relative to Trimecaine or Lidocaine ([1]; 0.5% solution, conduction applications): as much as twice
increase in activity over Trimecaine ([1]; conduction anesthesia): comparable increase
duration of deep anesthesia (male guinea pigs; 0.1% solution): 25 min
duration of deep anesthesia (male guinea pigs; 0.25% solution): 140.5 min
duration of deep anesthesia (male guinea pigs; 0.5% solution): 310.8 min
effectiveness relative to Lidocaine or Azacaine (male guinea pigs; 0.5% solution, long infiltration applications): ≤ 2.5 times
duration of deep anesthesia (male guinea pigs; 1.0% solution): 313.8 min
increase in activity as compared to Lidocaine (male guinea pigs; infiltration anesthesia): two-fold increase
increase in activity over Trimecaine (male guinea pigs; infiltration anesthesia): comparable increase
Latent period (male guinea pigs; [2]): about 1.5 minutes
median effective concentration (EC50) (male guinea pigs; [2]): 0.1%
